Measured values from PubChem BioAssay (NCI).
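Interpolation was linear, between the two tested concentrations surrounding the appropriate level; five concentrations were tested over 48 hours in 96-well plates. TGI: concentration producing complete growth inhibition.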

Assays:
Assay in all cases: NCI-60 cell line screen, 48 h
LOX IMVI melanoma = tested on: LOX IMVI melanoma
NCI-H460 lung = tested on: NCI-H460 lung
SF-295 CNS = tested on: SF-295 CNS
HOP-62 NSCLC = tested on: HOP-62 NSCLC
HCC-2998 colon = tested on: HCC-2998 colon
BT-549 breast = tested on: BT-549 breast
K-562 leukemia = tested on: K-562 leukemia
EKVX NSCLC = tested on: EKVX NSCLC
UACC-62 melanoma = tested on: UACC-62 melanoma
OVCAR-8 ovarian = tested on: OVCAR-8 ovarian
MDA-MB-435 = tested on: MDA-MB-435
A549 NSCLC = tested on: A549 NSCLC
HOP-92 NSCLC = tested on: HOP-92 NSCLC
OVCAR-5 ovarian = tested on: OVCAR-5 ovarian
NCI-H522 lung = tested on: NCI-H522 lung
UACC-257 melanoma = tested on: UACC-257 melanoma
OVCAR-3 ovarian = tested on: OVCAR-3 ovarian
NCI-H23 lung = tested on: NCI-H23 lung
TK-10 renal = tested on: TK-10 renal
SF-268 CNS = tested on: SF-268 CNS
MDA-N = tested on: MDA-N
ACHN renal = tested on: ACHN renal
HCT-116 colon = tested on: HCT-116 colon
RXF 393 renal = tested on: RXF 393 renal
CAKI-1 renal = tested on: CAKI-1 renal
RPMI-8226 leukemia = tested on: RPMI-8226 leukemia
UO-31 renal = tested on: UO-31 renal
CCRF-CEM leukemia = tested on: CCRF-CEM leukemia
NCI/ADR-RES ovarian = tested on: NCI/ADR-RES ovarian
SW-620 colon = tested on: SW-620 colon
NCI-H226 lung = tested on: NCI-H226 lung
IGROV1 ovarian = tested on: IGROV1 ovarian
SR leukemia = tested on: SR leukemia
MCF7 breast = tested on: MCF7 breast
HT29 colon = tested on: HT29 colon
786-0 renal = tested on: 786-0 renal
HCT-15 colon = tested on: HCT-15 colon
SNB-19 CNS = tested on: SNB-19 CNS
M14 melanoma = tested on: M14 melanoma
MDA-MB-231 breast = tested on: MDA-MB-231 breast
MALME-3M melanoma = tested on: MALME-3M melanoma
SK-MEL-28 melanoma = tested on: SK-MEL-28 melanoma
SK-MEL-5 melanoma = tested on: SK-MEL-5 melanoma
SK-OV-3 ovarian = tested on: SK-OV-3 ovarian
KM12 colon = tested on: KM12 colon
PC-3 prostate = tested on: PC-3 prostate
SK-MEL-2 melanoma = tested on: SK-MEL-2 melanoma
U251 CNS = tested on: U251 CNS
MOLT-4 leukemia = tested on: MOLT-4 leukemia
T-47D breast = tested on: T-47D breast
COLO 205 colon = tested on: COLO 205 colon
OVCAR-4 ovarian = tested on: OVCAR-4 ovarian
DU-145 prostate = tested on: DU-145 prostate
A498 renal = tested on: A498 renal
SF-539 CNS = tested on: SF-539 CNS
HS 578T breast = tested on: HS 578T breast
SNB-75 CNS = tested on: SNB-75 CNS
SN12C renal = tested on: SN12C renal
HL-60(TB) leukemia = tested on: HL-60(TB) leukemia

CC(C)(N)CO[C@H]1C[C@H]2CC[C@@]1(C)C2(C)C
TGI (LOX IMVI melanoma): 35.1 µM | TGI (NCI-H460 lung): 36.3 µM | TGI (SF-295 CNS): 39.3 µM | TGI (HOP-62 NSCLC): 44 µM | TGI (HCC-2998 colon): 5.23 µM | TGI (BT-549 breast): 60.5 µM | TGI (K-562 leukemia): 43.3 µM | TGI (EKVX NSCLC): > 100 µM | TGI (UACC-62 melanoma): 34.3 µM | TGI (OVCAR-8 ovarian): 53.1 µM | TGI (MDA-MB-435): 30.5 µM | TGI (A549 NSCLC): > 100 µM | TGI (HOP-92 NSCLC): 49.1 µM | TGI (OVCAR-5 ovarian): 41.3 µM | TGI (NCI-H522 lung): 37.1 µM | TGI (UACC-257 melanoma): 34.7 µM | TGI (OVCAR-3 ovarian): > 100 µM | TGI (NCI-H23 lung): 66 µM | TGI (TK-10 renal): 40 µM | TGI (SF-268 CNS): > 100 µM | TGI (MDA-N): 30.2 µM | TGI (ACHN renal): 95 µM | TGI (HCT-116 colon): 29.8 µM | TGI (RXF 393 renal): 28.2 µM | TGI (CAKI-1 renal): 70.6 µM | TGI (RPMI-8226 leukemia): 40.7 µM | TGI (UO-31 renal): 37.7 µM | TGI (CCRF-CEM leukemia): 83.6 µM | TGI (NCI/ADR-RES ovarian): > 100 µM | TGI (SW-620 colon): 54.4 µM | TGI (NCI-H226 lung): 49.8 µM | TGI (IGROV1 ovarian): > 100 µM | TGI (SR leukemia): 81.1 µM | TGI (MCF7 breast): 37.1 µM | TGI (HT29 colon): 34 µM | TGI (786-0 renal): 30.2 µM | TGI (HCT-15 colon): 47 µM | TGI (SNB-19 CNS): 68.5 µM | TGI (M14 melanoma): 31.4 µM | TGI (MDA-MB-231 breast): 36.5 µM | TGI (MALME-3M melanoma): 33.6 µM | TGI (SK-MEL-28 melanoma): 27.4 µM | TGI (SK-MEL-5 melanoma): 32.8 µM | TGI (SK-OV-3 ovarian): > 100 µM | TGI (KM12 colon): 34 µM | TGI (PC-3 prostate): > 100 µM | TGI (SK-MEL-2 melanoma): 35.3 µM | TGI (U251 CNS): 36.4 µM | TGI (MOLT-4 leukemia): 80.9 µM | TGI (T-47D breast): 35.9 µM | TGI (COLO 205 colon): 35.2 µM | TGI (OVCAR-4 ovarian): 74.5 µM | TGI (DU-145 prostate): 73.8 µM | TGI (A498 renal): 82.1 µM | TGI (SF-539 CNS): 41 µM | TGI (HS 578T breast): 79 µM | TGI (SNB-75 CNS): 39.3 µM | TGI (SN12C renal): > 100 µM

COc1cc(C2S/C(=C/c3ccccc3)C(=O)N2c2cc(Cl)ccc2Cl)cc(OC)c1OC (stereo not drawn)
TGI (LOX IMVI melanoma): 36.1 µM | TGI (NCI-H460 lung): > 100 µM | TGI (SF-295 CNS): > 100 µM | TGI (HOP-62 NSCLC): > 100 µM | TGI (HCC-2998 colon): > 100 µM | TGI (BT-549 breast): > 100 µM | TGI (K-562 leukemia): > 100 µM | TGI (EKVX NSCLC): > 100 µM | TGI (UACC-62 melanoma): > 100 µM | TGI (OVCAR-8 ovarian): > 100 µM | TGI (MDA-MB-435): > 100 µM | TGI (A549 NSCLC): > 100 µM | TGI (HOP-92 NSCLC): > 100 µM | TGI (NCI-H522 lung): 50.4 µM | TGI (UACC-257 melanoma): > 100 µM | TGI (OVCAR-3 ovarian): > 100 µM | TGI (NCI-H23 lung): > 100 µM | TGI (TK-10 renal): > 100 µM | TGI (SF-268 CNS): 53.1 µM | TGI (MDA-N): > 100 µM | TGI (ACHN renal): > 100 µM | TGI (HCT-116 colon): 28.1 µM | TGI (RXF 393 renal): > 100 µM | TGI (CAKI-1 renal): > 100 µM | TGI (RPMI-8226 leukemia): > 100 µM | TGI (UO-31 renal): > 100 µM | TGI (CCRF-CEM leukemia): > 100 µM | TGI (NCI/ADR-RES ovarian): > 100 µM | TGI (SW-620 colon): > 100 µM | TGI (NCI-H226 lung): > 100 µM | TGI (IGROV1 ovarian): 68.3 µM | TGI (SR leukemia): > 100 µM | TGI (MCF7 breast): > 100 µM | TGI (HT29 colon): > 100 µM | TGI (786-0 renal): 41.3 µM | TGI (HCT-15 colon): > 100 µM | TGI (SNB-19 CNS): > 100 µM | TGI (M14 melanoma): 62.4 µM | TGI (MDA-MB-231 breast): > 100 µM | TGI (MALME-3M melanoma): > 100 µM | TGI (SK-MEL-28 melanoma): > 100 µM | TGI (SK-MEL-5 melanoma): > 100 µM | TGI (SK-OV-3 ovarian): > 100 µM | TGI (KM12 colon): 38.8 µM | TGI (PC-3 prostate): > 100 µM | TGI (SK-MEL-2 melanoma): > 100 µM | TGI (U251 CNS): > 100 µM | TGI (MOLT-4 leukemia): > 100 µM | TGI (T-47D breast): > 100 µM | TGI (COLO 205 colon): > 100 µM | TGI (DU-145 prostate): > 100 µM | TGI (A498 renal): > 100 µM | TGI (SF-539 CNS): 42.9 µM | TGI (HL-60(TB) leukemia): > 100 µM | TGI (SN12C renal): > 100 µM
